Laboratory results: patent publication US20030138533A1, “Food and beverage perservative” (Nutraceutical Clinical Laboratories International, Inc., priority 2002, published 2003)

System: mold
Assay: Mold growth in white pan bread during storage (shelf-life test)
Details: white pan bread mix; test preservative about 3.5% of total mix weight, control 0.27% calcium propionate; same packaging and storage; 90 day test period
Description: The test sample preservative composition as shown in Table 1 was added to white pan bread mix in the final minute of mixing after yeast and salt had been blended into the mixture. The preservative composition comprised about 3.5% of the total weight of the mix. A control sample containing 0.27% calcium propionate was added to another identical sample of white pan bread mix. The control sample molded in 12 days. The test sample remained free of any sign of mold growth during a 90 day test period. Both the test sample and the control sample were packaged and stored in the same conditions throughout the test period.

CCC(=O)[O-].CCC(=O)[O-].[Ca+2] [calcium propionate]
time without mold growth (time until the bread sample molded): 12 days
